The supplement of paper PMC10307832

Assays:
Assay in all cases: relative viability (nuclei count vs DMSO), 5 days (fraction); higher = more cells survive
[1] = compound: C=CCNC1=C2C[C@@H](C)C[C@H](OC)[C@H](O)[C@@H](C)/C=C(\C)[C@H](OC(N)=O)[C@@H](OC)/C=C\C=C(/C)C(=O)NC(=CC1=O)C2=O [17-AAG] + CS(=O)(=O)CCNCc1ccc(-c2ccc3ncnc(Nc4ccc(OCc5cccc(F)c5)c(Cl)c4)c3c2)o1 [Lapatinib] (partner 2 µM)
In short: (§1)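 A single step with final 0.05% Triton X-100, 1% formaldehyde and 1 ug/ml Hoechst fixed the cells and stained nuclei 5 days after treatment. Lung cancer cell lines in 1536-well plates had been treated by pin tool the day after seeding with one drug alone or a fixed anchor-drug dose plus five library-drug doses (not always all listed) in √10 steps, and nuclei were counted on 4× images. Relative viability is the ratio of nuclei in treated wells to nuclei in vehicle wells, taken as the median of duplicate plates.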

[2] = compound: C=CCNC1=C2C[C@@H](C)C[C@H](OC)[C@H](O)[C@@H](C)/C=C(\C)[C@H](OC(N)=O)[C@@H](OC)/C=C\C=C(/C)C(=O)NC(=CC1=O)C2=O [17-AAG] + C[C@@H](Oc1cc(-c2cnn(C3CCNCC3)c2)cnc1N)c1c(Cl)ccc(F)c1Cl [Crizotinib] (partner 1 µM)
In short: as §1

[3] = compound: C=CCNC1=C2C[C@@H](C)C[C@H](OC)[C@H](O)[C@@H](C)/C=C(\C)[C@H](OC(N)=O)[C@@H](OC)/C=C\C=C(/C)C(=O)NC(=CC1=O)C2=O [17-AAG] + Cc1nc(Nc2ncc(C(=O)Nc3c(C)cccc3Cl)s2)cc(N2CCN(CCO)CC2)n1 [Dasatinib] (partner 0.075 µM)
In short: as §1

[4] = compound: C=CCNC1=C2C[C@@H](C)C[C@H](OC)[C@H](O)[C@@H](C)/C=C(\C)[C@H](OC(N)=O)[C@@H](OC)/C=C\C=C(/C)C(=O)NC(=CC1=O)C2=O [17-AAG] + Nc1nc2[nH]cc(CCc3ccc(C(=O)N[C@@H](CCC(=O)O)C(=O)O)cc3)c2c(=O)[nH]1 [Pemetrexed] (partner 0.2 µM)
In short: as §1

Cell Line	relative viability ([1]; first compound 0.00128 µM)	relative viability ([1]; first compound 0.004048 µM)	relative viability ([1]; first compound 0.0128 µM)	relative viability ([1]; first compound 0.04048 µM)	relative viability ([1]; first compound 0.128 µM)	relative viability ([2]; first compound 0.00128 µM)	relative viability ([2]; first compound 0.004048 µM)	relative viability ([2]; first compound 0.0128 µM)	relative viability ([2]; first compound 0.04048 µM)	relative viability ([2]; first compound 0.128 µM)	relative viability ([3]; first compound 0.00128 µM)	relative viability ([3]; first compound 0.004048 µM)	relative viability ([3]; first compound 0.0128 µM)	relative viability ([3]; first compound 0.04048 µM)	relative viability ([3]; first compound 0.128 µM)	relative viability ([4]; first compound 0.00128 µM)	relative viability ([4]; first compound 0.004048 µM)	relative viability ([4]; first compound 0.0128 µM)	relative viability ([4]; first compound 0.04048 µM)	relative viability ([4]; first compound 0.128 µM)
H3255	0.296	0.338	0.275	0.235	0.175	0.926	0.833	0.646	0.196	0.161	0.427	0.345	0.374	0.204	0.207	0.578	0.6	0.531	0.287	0.267
NCI-H661	0.445	0.436	0.47	0.416	0.259	1.13	1.02	0.947	0.841	0.532	0.878	0.862	0.853	0.361	0.195	0.883	0.926	0.861	0.367	0.31
LOU-NH91	0.852	0.795	0.521	0.328	0.36	0.666	0.624	0.516	0.365	0.353	0.535	0.421	0.359	0.295	0.273	0.392	0.371	0.304	0.302	0.371
NCI-H1650	0.624	0.303	0.133	0.171	0.175	1.01	0.659	0.136	0.179	0.126	0.267	0.147	0.167	0.199	0.148	0.336	0.383	0.351	0.168	0.15
NCI-H322M	0.616	0.612	0.65	0.522	0.294	0.811	0.92	0.979	0.65	0.442	0.284	0.302	0.256	0.257	0.268	0.659	0.652	0.42	0.348	0.366
RERF-LC-KJ	0.957	0.901	1.04	0.508	0.297	0.894	0.831	0.901	0.616	0.232	0.742	0.833	0.276	0.266	0.248	0.47	0.514	0.33	0.255	0.219
NCI-H1651	0.841	0.874	0.519	0.168	0.146	0.828	0.82	0.828	0.827	0.571	0.486	0.415	0.206	0.186	0.111	0.635	0.605	0.585	0.536	0.173
NCI-H2087	0.823	0.808	0.477	0.238	0.135	0.861	0.66	0.321	0.213	0.148	0.872	0.49	0.0992	0.13	0.0882	0.606	0.618	0.354	0.163	0.128
